Where “and” joins values, the source holds several entries; their conditions need not be identical. Identical values can stand only once.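 Compound exposure: 48 hours, 5 concentrations, 96-well plates. GI50 = concentration required for 50% inhibition of growth. At the TGI there is no net growth.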
Columns and labels:
Assay in all cases: inhibition of tumour cell growth, NCI panel, 48 h
[1] = test system: DU-145 prostate
[2] = test system: HCC-2998 colon
[3] = test system: HL-60(TB) leukemia
[4] = test system: HOP-62 NSCLC
[5] = test system: MDA-MB-231 breast
[6] = test system: MDA-N
[7] = test system: NCI-H226 lung
[8] = test system: NCI-H522 lung
[9] = test system: NCI/ADR-RES ovarian
[10] = test system: OVCAR-3 ovarian
[11] = test system: SN12C renal
[12] = test system: SR leukemia
[13] = test system: TK-10 renal
[14] = test system: CAKI-1 renal

## CC(=O)NC(CCC(=O)C=[N+]=N)C(=O)O (configuration not stated)
[1]
  TGI: > 100 µM
[2]
  TGI: > 100 µM
[3]
  TGI: > 100 µM
[4]
  TGI: > 100 µM
[5]
  TGI: > 100 µM
[6]
  TGI: > 100 µM
[7]
  TGI: > 100 µM
[8]
  TGI: > 100 µM
[9]
  TGI: > 100 µM
[10]
  TGI: > 100 µM
[11]
  TGI: > 100 µM
[12]
  TGI: > 100 µM
[13]
  TGI: > 100 µM

## Cc1oc2c(Cl)cc(O)c(Cl)c2c2cccc1-2
[14]
  TGI: > 100 µM
[1]
  TGI: 27.5 µM
[2]
  TGI: > 100 µM
[3]
  TGI: > 100 µM
[4]
  TGI: 66.5 µM
[5]
  TGI: > 100 µM
[6]
  TGI: 60.3 µM
[7]
  TGI: 61.6 µM
[8]
  TGI: 83.3 µM
[9]
  TGI: 79.9 µM
[10]
  TGI: 56.6 µM
[11]
  TGI: 80.7 µM
[12]
  TGI: 77 µM
[13]
  TGI: > 100 µM

## [O-][n+]1ccccc1S
[14]
  TGI: 8.09 µM
[1]
  GI50: 3.48 µM
  TGI: 46.8 µM
[2]
  TGI: > 100 µM
[4]
  TGI: 13.1 µM
[5]
  GI50: 6.73 µM
  TGI: > 100 µM
[7]
  TGI: > 100 µM
[8]
  TGI: 5.14 µM
[9]
  GI50: 5.17 µM
  TGI: > 100 µM
[10]
  TGI: 2.78 µM
[11]
  TGI: > 100 µM
[13]
  TGI: 4.71 µM

## O=S(=O)(O)c1ccc(N=Nc2c(O)ccc3cc(Br)ccc23)cc1
[14]
  TGI: > 100 µM
[1]
  TGI: > 100 µM
[4]
  TGI: > 100 µM
[5]
  TGI: > 100 µM
[6]
  TGI: > 100 µM
[8]
  TGI: > 100 µM
[9]
  TGI: > 100 µM
[10]
  TGI: > 100 µM
[11]
  TGI: > 100 µM
[12]
  TGI: > 100 µM
[13]
  TGI: > 100 µM

## CNC(=O)SCC(N)C(=O)O (configuration not stated)
[14]
  TGI: > 100 µM
[2]
  TGI: > 100 µM
[3]
  TGI: > 100 µM
[4]
  TGI: > 100 µM
[7]
  TGI: > 100 µM
[8]
  TGI: > 100 µM
[9]
  TGI: > 100 µM
[10]
  TGI: > 100 µM
[11]
  TGI: > 100 µM

## Cc1ccc(-c2cc(C(F)(F)F)nn2-c2ccc(S(N)(=O)=O)cc2)cc1
[14]
  TGI: > 60.1 µM
[1]
  TGI: > 57.7 µM
[2]
  TGI: 33.1 µM
[3]
  TGI: 42.7 µM
[4]
  TGI: > 100 µM
[5]
  TGI: > 54.2 µM
[6]
  TGI: 30.9 µM
[7]
  GI50: 28.2 µM
  TGI: > 100 µM
[8]
  GI50: 19.9 µM
  TGI: 77.6 µM
[9]
  TGI: 43.1 µM
[10]
  TGI: 32 µM
[11]
  TGI: 42.1 µM
[12]
  TGI: 45.3 µM
[13]
  TGI: > 59.2 µM

## CC1CCC2(C(=O)O)CCC3(C)C(=CCC4C5(C)CCC(O)C(C)(C)C5CCC43C)C2C1C (configuration not stated)
[14]
  TGI: 16.6 µM and 17.5 µM
[1]
  TGI: 21.6 µM
[2]
  TGI: 21.8 µM and 23 µM
[3]
  TGI: 19 µM and 6.49 µM
[4]
  TGI: 21.8 µM and 39.1 µM
[5]
  TGI: 26.2 µM
[6]
  TGI: 28.2 µM
[7]
  TGI: 18.7 µM and 37.7 µM
[8]
  GI50: 6.98 µM and 14.4 µM
  TGI: 17.8 µM and 28.9 µM
[9]
  TGI: 23.7 µM and 40.7 µM
[10]
  TGI: 18.4 µM and 26.8 µM
[11]
  TGI: 18.9 µM and 36.1 µM
[12]
  TGI: 59.8 µM
[13]
  TGI: 43.9 µM

## CCCC(=O)NC1CCc2cc(OC)c(OC)c(OC)c2-c2ccc(OC)c(=O)cc21 (configuration not stated)
[1]
  TGI: 0.0114 µM
[3]
  TGI: 0.158 µM
[4]
  TGI: > 100 µM
[9]
  GI50: 3.2 µM
  TGI: > 100 µM
[10]
  TGI: 0.211 µM
[11]
  TGI: > 100 µM
[13]
  TGI: > 100 µM

## CC1CC[C@@]2(OC1)OC1CC3C4CCC5C[C@@H](OC6OC(CO)C(OC7OC(CO)C(O)C(OC8OC(CO)C(O)C(OC9OC(CO)C(O)C(O)C9O)C8O)C7OC7OC(CO)C(O)C(O)C7O)C(O)C6O)[C@H](O)C[C@]5(C)C4CC[C@]3(C)C1[C@@H]2C (some centres not stated)
[14]
  TGI: > 80.5 µM
[1]
  TGI: > 80.5 µM
[2]
  TGI: > 80.5 µM
[3]
  TGI: > 80.5 µM
[4]
  TGI: > 80.5 µM
[5]
  TGI: > 80.5 µM
[6]
  TGI: > 80.5 µM
[7]
  TGI: > 80.5 µM
[9]
  TGI: > 80.5 µM
[10]
  TGI: > 80.5 µM
[11]
  TGI: > 80.5 µM
[13]
  TGI: > 80.5 µM

## CCC(=O)c1ccc2[nH]c3c(C)c4c(=O)cc(C)[nH]c4c(C)c3c2c1
[14]
  TGI: > 100 µM
[1]
  TGI: > 100 µM
[2]
  TGI: > 100 µM
[3]
  TGI: > 100 µM
[4]
  TGI: > 100 µM
[5]
  TGI: > 100 µM
[6]
  TGI: > 100 µM
[7]
  TGI: > 100 µM
[8]
  TGI: > 100 µM
[9]
  TGI: > 100 µM
[12]
  TGI: > 100 µM
[13]
  TGI: > 100 µM

## CC(=O)O[C@H]1/C(=C/c2ccncc2)C[C@H]2[C@@H]3CC=C4C[C@@H](N5CCCC5)CC[C@]4(C)[C@H]3CC[C@]12C
[14]
  TGI: 27.9 µM
[1]
  TGI: 28 µM
[2]
  TGI: 26 µM
[3]
  TGI: 26.1 µM
[4]
  TGI: 30.4 µM
[5]
  TGI: 35 µM
[7]
  TGI: 38 µM
[8]
  TGI: 34.9 µM
[9]
  TGI: 25.1 µM
[10]
  TGI: 45.9 µM
[11]
  TGI: 30.8 µM
[12]
  TGI: 21.6 µM
[13]
  TGI: 29.5 µM

— PubChem BioAssay (NCI)
